This passage reports IC50 results from US9611252B2 (LifeSci Pharmaceuticals, Inc., priority 2013, dated 2017).

Where only a bound is given, the exact number is not on record here.

One test deals with human Plasma Kallikrein (Homo sapiens (Human), UniProt P03952). Briefly: In vitro enzyme inhibition of human plasma kallikrein (PFR-AMC cleavage). The test is classed as biochemical.
human Plasma Kallikrein, sequence (P03952 20-638): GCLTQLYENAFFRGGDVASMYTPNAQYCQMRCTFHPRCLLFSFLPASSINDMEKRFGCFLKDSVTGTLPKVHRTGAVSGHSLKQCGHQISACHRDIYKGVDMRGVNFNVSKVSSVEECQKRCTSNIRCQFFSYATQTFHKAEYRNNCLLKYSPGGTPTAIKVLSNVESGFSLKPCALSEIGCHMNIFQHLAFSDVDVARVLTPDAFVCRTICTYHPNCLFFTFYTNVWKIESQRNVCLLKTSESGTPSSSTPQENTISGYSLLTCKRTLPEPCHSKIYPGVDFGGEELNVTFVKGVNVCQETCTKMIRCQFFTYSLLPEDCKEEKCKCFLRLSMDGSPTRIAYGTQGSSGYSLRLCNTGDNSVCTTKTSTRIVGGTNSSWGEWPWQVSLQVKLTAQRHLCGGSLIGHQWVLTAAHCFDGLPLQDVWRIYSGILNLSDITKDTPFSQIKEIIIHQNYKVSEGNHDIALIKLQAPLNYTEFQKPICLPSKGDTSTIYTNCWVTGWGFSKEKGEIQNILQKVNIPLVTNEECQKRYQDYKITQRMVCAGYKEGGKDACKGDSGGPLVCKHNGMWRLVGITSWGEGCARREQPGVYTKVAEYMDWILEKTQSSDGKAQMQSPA
Details: not given
As for the experimental part:
The ability of the compounds disclosed herein to inhibit human plasma kallikrein activity was quantified according to the procedures below.
A 10 mM solution of the test compound was made in DMSO. […] A control tube containing only DMSO is included. 16 μL of each compound test solution was combined with 384 μL of assay buffer (50 mM Tris-HCl pH 7.5, 150 mM NaCl, 0.01% Triton X-100) to yield a “4× test compound buffer stock”.
These solutions are hereby referred to as 4×hPK and 2×PFR-AMC, respectively.
50 μL was removed from this mixture and placed into duplicate wells on a Microfluor 1Black U-bottom microtiter plate (Thermo Scientific). This plate was incubated for 5 minutes at 37° C. To each well, 50 μL of pre-warmed 2×PFR-AMC was added to start the enzymatic reaction. Cleavage of PFR-AMC was monitored in a Biotek Synergy H4 reader set at 37° C. Readings are taken every 43 seconds for 1 hour. […] The IC50 is calculated using the Gen5 (Biotek Instruments).
The ability of the compounds in Table 3 to inhibit human plasma kallikrein activity was determined.
Regarding `Cc1cc(N)ncc1CNC(=O)c1ccnc(Cc2cc(C#N)c3ncc(Cl)cc3c2)c1` [Example 53, N-((6-amino-4-methylpyridin-3-yl)methyl)-2-((3-chloro-8-cyanoquinolin-6-yl)methyl)isonicotinamide], the IC50 was in the range of 100 to 1000 nM.

The test is the same for the next values; noted with them: human plasma kallikrein, Pro-Phe-Arg-AMC substrate, 37° C.; read-out: hPK IC50.
Turning to `Cc1ccc2ncc(Cc3cc(C(=O)NCc4ccc5c(N)noc5c4)ccn3)cc2c1` [Example 48, N-((3-aminobenzo[d]isoxazol-6-yl)methyl)-2-((6-methylquinolin-3-yl)methyl)isonicotinamide], the concentration for half-maximal inhibition (IC50) was above 10000 nM. In the case of `N#Cc1cc(Cc2cc(C(=O)NCc3cc4c(Cl)c[nH]c4cc3F)ccn2)cc2cc(Cl)cnc12` [Example 49, N-((3-chloro-6-fluoro-1H-indol-5-yl)methyl)-2-((3-chloro-8-cyanoquinolin-6-yl)methyl)isonicotinamide], the IC50 was below 100 nM. As to `N#Cc1cc(Cc2cc(C(=O)NCc3ccc4[nH]cc(Cl)c4c3F)ccn2)cc2cc(Cl)cnc12` [Example 51, N-((3-chloro-4-fluoro-1H-indol-5-yl)methyl)-2-((3-chloro-8-cyanoquinolin-6-yl)methyl)isonicotinamide], the half-inhibitory concentration (IC50) was below 100 nM. Regarding `N#Cc1cc(Cc2cc(C(=O)NCc3cc4cc[nH]c4cc3F)ccn2)cc2cc(Cl)cnc12` [Example 52, 2-((3-chloro-8-cyanoquinolin-6-yl)methyl)-N-((6-fluoro-1H-indol-5-yl)methyl)isonicotinamide], the IC50 was below 100 nM. `N#Cc1cc(Cc2cc(C(=O)NCc3n[nH]c4ccc(Cl)cc34)ccn2)cc2cc(Cl)cnc12` [Example 54, 2-(3-chloro-8-cyano-quinolin-6-ylmethyl)-N-(5-chloro-1H-indazol-3-ylmethyl)-isonicotinamide]: the 50% inhibitory concentration (IC50) is below 100 nM. On to `N#Cc1cc(Cc2cc(C(=O)NCc3cnc4[nH]cc(Cl)c4c3)ccn2)cc2cc(Cl)cnc12` [Example 55, 2-(3-chloro-8-cyano-quinolin-6-ylmethyl)-N-(3-chloro-1H-pyrrolo[2,3-b]pyridin-5-ylmethyl)-isonicotinamide], for which the IC50 was below 100 nM. In the case of `Cc1cc(N)ncc1CNC(=O)c1ccnc(Cc2cc(C(N)=O)c3ncc(Cl)cc3c2)c1` [Example 63, 6-((4-(((6-amino-4-methylpyridin-3-yl)methyl)carbamoyl)pyridin-2-yl)methyl)-3-chloroquinoline-8-carboxamide], the IC50 was below 100 nM. For `Cc1cnc2c(C#N)cc(Cc3cc(C(=O)NCc4ccc5[nH]cc(Cl)c5c4F)ccn3)cc2c1` [Example 74, N-((3-chloro-4-fluoro-1H-indol-5-yl)methyl)-2-((8-cyano-3-methylquinolin-6-yl)methyl)isonicotinamide], the half-inhibitory concentration (IC50) is below 100 nM. Consider `Cc1cnc2c(C#N)cc(Cc3cc(C(=O)NCc4n[nH]c5ccc(Cl)cc45)ccn3)cc2c1` [Example 75, N-((5-chloro-1H-indazol-3-yl)methyl)-2-((8-cyano-3-methylquinolin-6-yl)methyl)isonicotinamide], for which the IC50 was below 100 nM. As to `Cc1cnc2c(C#N)cc(Cc3cc(C(=O)NCc4cc5cc[nH]c5cc4F)ccn3)cc2c1` [Example 76, 2-((8-cyano-3-methylquinolin-6-yl)methyl)-N-((6-fluoro-1H-indol-5-yl)methyl)isonicotinamide], the IC50 was below 100 nM.

`Cc1cc(N)ncc1CNC(=O)c1ccnc(Cn2cc3cc(Cl)ccc3cc2=O)c1` [Example 85, N-((6-amino-4-methylpyridin-3-yl)methyl)-2-((7-chloro-3-oxoisoquinolin-2(3H)-yl)methyl)isonicotinamide]: the 50% inhibitory concentration (IC50) lay within 100 to 1000 nM.

On to `Cc1nc(N)ccc1CNC(=O)c1ccnc(Cn2cc3cc(Cl)ccc3cc2=O)c1` [Example 86, N-((6-amino-2-methylpyridin-3-yl)methyl)-2-((7-chloro-3-oxoisoquinolin-2(3H)-yl)methyl)isonicotinamide], for which the IC50 was in the range of 100 to 1000 nM.

With `Cc1cc(N)nc(C)c1CNC(=O)c1ccnc(Cn2cc3cc(Cl)ccc3cc2=O)c1` [Example 87, N-((6-amino-2,4-dimethylpyridin-3-yl)methyl)-2-((7-chloro-3-oxoisoquinolin-2(3H)-yl)methyl)isonicotinamide], the IC50 lay in the range of 100 to 1000 nM. As to `O=C(NCc1cc2c(Cl)c[nH]c2cc1F)c1ccnc(Cn2cc3cc(Cl)ccc3cc2=O)c1` [Example 88, 2-((7-chloro-3-oxoisoquinolin-2(3H)-yl)methyl)-N-((3-chloro-6-fluoro-1H-indol-5-yl)methyl)isonicotinamide], the IC50 was 100 to 1000 nM. Same read-out and setting: as for `O=C(NCc1cc2c(Cl)c[nH]c2cc1F)c1ccnc(Cc2cc(F)c3ncc(Cl)cc3c2)c1` [Example 90, N-(3-chloro-6-fluoro-1H-indol-5-ylmethyl)-2-(3-chloro-8-fluoro-quinolin-6-ylmethyl)-isonicotinamide], the figure is below 100 nM; as for `COC(=O)c1cc(Cc2cc(C(=O)NCc3c(C)cc(N)nc3C)ccn2)cc2cc(Cl)cnc12` [Example 92, methyl 6-((4-(((6-amino-2,4-dimethylpyridin-3-yl)methyl)carbamoyl)pyridin-2-yl)methyl)-3-chloroquinoline-8-carboxylate], below 100 nM; as for `Cc1cc(N)nc(C)c1CNC(=O)c1ccnc(Cc2cc(C(=O)O)c3ncc(Cl)cc3c2)c1` [Example 93, 6-((4-(((6-amino-2,4-dimethylpyridin-3-yl)methyl)carbamoyl)pyridin-2-yl)methyl)-3-chloroquinoline-8-carboxylic acid], below 100 nM. For `Cc1cc(N)nc(C)c1CNC(=O)c1ccnc(Cc2cc(CO)c3ncc(Cl)cc3c2)c1` [Example 94, N-((6-amino-2,4-dimethylpyridin-3-yl)methyl)-2-((3-chloro-8-(hydroxymethyl)quinolin-6-yl)methyl)isonicotinamide], the half-inhibitory concentration (IC50) is below 100 nM. Consider `COC(=O)c1cc(Cc2cc(C(=O)NCc3ccc(N)nc3C)ccn2)cc2cc(Cl)cnc12` [Example 95, methyl 6-((4-(((6-amino-2-methylpyridin-3-yl)methyl)carbamoyl)pyridin-2-yl)methyl)-3-chloroquinoline-8-carboxylate], for which the concentration for half-maximal inhibition (IC50) is below 100 nM.

Consider `Cc1nc(N)ccc1CNC(=O)c1ccnc(Cc2cc(C(=O)O)c3ncc(Cl)cc3c2)c1` [Example 96, 6-((4-(((6-amino-2-methylpyridin-3-yl)methyl)carbamoyl)pyridin-2-yl)methyl)-3-chloroquinoline-8-carboxylic acid], for which the concentration for half-maximal inhibition (IC50) was in the range of 100 to 1000 nM. As to `Cc1nc(N)ccc1CNC(=O)c1ccnc(Cc2cc(CO)c3ncc(Cl)cc3c2)c1` [Example 97, N-((6-amino-2-methylpyridin-3-yl)methyl)-2-((3-chloro-8-(hydroxymethyl)quinolin-6-yl)methyl)isonicotinamide], the half-inhibitory concentration (IC50) was below 100 nM. As for `Cc1cc(N)[n+]([O-])c(C)c1CNC(=O)c1ccnc(Cc2ccc3ncc(Cl)cc3c2)c1` [Example 98, 6-amino-3-((2-((3-chloroquinolin-6-yl)methyl)isonicotinamido)methyl)-2,4-dimethylpyridine 1-oxide], the half-inhibitory concentration (IC50) was in the range of 100 to 1000 nM. On the same count and under the same terms, as for `Cc1cc(N)nc(C)c1CNC(=O)c1ccnc(Cc2ccc3c(cc(Cl)c[n+]3[O-])c2)c1` [Example 99, 6-((4-(((6-amino-2,4-dimethylpyridin-3-yl)methyl)carbamoyl)pyridin-2-yl)methyl)-3-chloroquinoline 1-oxide], the figure is below 100 nM.
